# In patent publication US8268778B2, “Flavivirus NS5A proteins for the treatment of HIV” (priority 2007, dated 2012):
# Entries after “also recorded” stand apart in the source; their conditions may differ.
# Columns and labels:
# HIV-1 isolate (X4) [1] = format: cell-based
# CD4 = format: cell-based, human
# SDF-1 = format: cell-based, human
# CXCR4 = format: cell-based, human
# HIV-1 isolate (X4) [2] = assay: HIV replication (p24 antigen release) in Jurkat cell lines stably expressing NS5A proteins/peptides; format: cell-based; settings: Jurkat cell lines stably expressing the protein/peptide vs vector and frame-shift controls
# Jurkat cells = format: cell-based, human
Sequence,HIV replication (HIV-1 isolate (X4) [1]),CD4 surface expression (CD4),SDF-1 release into culture supernatants (SDF-1),CXCR4 surface expression (CXCR4),HIV replication (HIV p24 antigen release into culture supernatants) (HIV-1 isolate (X4) [2]),"CD4 mRNA regulation, in words (Jurkat cells)","regulation of Th2 cytokines, TNFα, and BCL2 mRNA (Jurkat cells)"
"DVIRAGPAWDSVAPAD [152-167scr, negative control, reference compound]",Neither peptide inhibited HIV replication,do not,–,–,–,–,–
VDGIPVEWDADARAPA [S158E],–,down-regulate CD4,induced SDF-1 release,significantly less CXCR4 expressed,significantly inhibited; also recorded: significantly less HIV replication than all other cell lines,–,–
VDGIPVGWDADARAPA (Hepatitis GB virus C) [S158G],–,do not,–,–,inhibited HIV replication; also recorded: significantly less HIV replication than FS and VC,–,–
VDGIPVAWDADARAPA (Hepatitis GB virus C) [S158A],–,do not,–,–,inhibited HIV replication; also recorded: significantly less HIV replication than FS and VC,–,–
VDGIPVSWDADARA (Hepatitis GB virus C) [152-165],–,–,induced,–,significantly reduced,–,–
VDGIPVSWDADARAPA (Hepatitis GB virus C) [152-167],–,down-regulate CD4,–,–,significantly reduced,down-regulated,do not appear to be altered
